Assays:
CXCR4 = target: T1, CXCR4 (Homo sapiens, UniProt P61073); experiment: Inhibition of binding human SDF-1 (125I-SDF-1) to CEM cells; conditions: 125I-SDF-1 binding to human T cell strain CEM cells, 4° C., 60 minutes
T1 construct: a human T cell strain in which CXCR4 is known to be expressed; endogenous in cells; host or cells: CEM cells (human T cell strain)
Protocol: Specifically, as a system of screening a compound that inhibits the binding between SDF-1 and CXCR4, for example a system of measuring the binding between iodine-labeled SDF-1 and a human T cell strain in which CXCR4 is known to be expressed is operable.
To human T cell strain CEM cells in a binding buffer (containing HEPES and BSA), the test compound and ^125I-SDF-1 (NEN) were added and the mixture was incubated at 4° C. for 60 minutes. The reacted CEM cells were rapidly filtrated with a GF/B membrane filter plate (Packard) to adsorb. The plate was washed with phosphate buffered saline (hereinafter abbreviated to PBS) three times and then dried. Microscint+20 (Packard) was added thereto. An amount of the radioactivity bound to the CEM cells was measured using Top Count (Packard) and inhibition (%) of the test compound was calculated according to the following equation: Inhibition={(Et−Ea)/(Et−Ec)}×100
Et: Amount of radioactivity when the test compound is not added,
Ec: Amount of radioactivity when non-radioactive SDF-1 (Pepro Tech) is added in an amount of 1,000 times as much as ^125I-SDF-1 as a test compound,
Ea: Amount of radioactivity when the test compound is added.

[1] = Artificial lipid membrane binding using Biacore S51 system (in vitro phospholipidosis risk); conditions: for Determination: Biacore lipid membrane binding, positive if corrected value 150 or more; for Corrected value of binding response (RU): compound 50 μM in PBS/5% DMSO (pH 7.4), 37° C., DOPA liposome on Sensor Chip L1
Protocol: 10 mM of 1,2-dioleoyl-sn-glycero-3-phosphate monosodium salt (hereinafter abbreviated as DOPA) chloroform solution was evaporated to dryness by means of an aspirator, and 0.6 mL of PBS/5% dimethyl sulfoxide (hereinafter abbreviated as DMSO) was added. The solution was fully suspended by the vortex mixer, and the freezing and thawing were repeated for 5 times. Liposome was created by the liposome preparation instrument (manufactured by Avestin Inc.) and two syringes, and was diluted to 0.5 mM with PBS/5% DMSO just prior to immobilization.
38 μl of 1×PBS was added to 2 μl of a DMSO solution (10 mM), and the 360 μl of 1×PBS/5% DMSO was further added thereto and the 50 μM of final concentration in PBS/5% DMSO was prepared and measured.
All of the following analysis used Biacore® S51 system and the measurement conditions were set by Biacore S51 Control Soft.
The measurement temperature was set to be 37° C., and PBS/5% DMSO (pH 7.4) was used as a buffer. Series S Sensor Chip L1 was used for a sensor chip. DOPA was immobilized in one of the measuring spots on the sensor surface and the central spot was used as a reference.
Immobilization of liposome was conducted at a flow rate of 10 μL/min for about 3 minutes and then the compound was added at a flow rate of 30 μL/min and the interaction was measured. The measurement conditions are as follows: • Assay buffer: PBS/5% DMSO (pH 7.4) • Measurement temperature: 37° C. • Sensor chip: Series S Sensor Chip L1 • Flow rate: 10 μL/min at the time of the liposome immobilization; 30 μL/min at the time of the measurement of interaction with the compound Regeneration: 20 mM CHAPS (3-[(3-cholamidopropyl)dimethylammonio]-1-propanesulfonate), isopropanol/aqueous 50 mM sodium hydroxide solution=40/60 (volume ratio) mixture (60 seconds) (4) Data Processing
The data processing was conducted by means of method of Abdiche et al. (Analytical biochemistry, 328, 233-243 (2004)) by using Biacore S51 Evaluation Soft.
Regarding the value of binding response (RU) in which the value of reference was subtracted, it was divided by a sample molecular weight after minute error of the DMSO concentration included in the sample solution was corrected. In addition, the value obtained here was divided by an amount of capture at the time of the cycle because the value obtained here was proportional to the amount of capture of the liposome and the value was multiplied by a million to be considered as a corrected value (Corrected value=1,000,000×RU (test compound)/molecular quantity (test compound) RU (liposome)).
Propranolol, amiodarone, desipramine, imipramine and procaine were added as the controls, and it was recognized that the variation of the binding response was within about 10 to 15%.
The compound wherein a value of the binding response after the correction was 150 or more was determined as positive.

[2] = test system: CHL/IU (cell line derived from a Chinese hamster lung); experiment: Phospholipidosis detecting system using fluorescent labeling phospholipid analog (NBD-PE); assay type: cell-based; conditions: for Rate of increase of phopholipid accumulation (%): compound dose: 100 μM, CHL/IU cells, NBD-PE, about 24 hours; for Determination: positive if 25% or more of maximum increase rate of amiodarone
Protocol: 100 μL/well as required (1 dose 2 wells) of cell suspension of CHL/IU (cell line derived from a Chinese hamster lung) (7×10^4 cells/mL) prepared by MEM (minimum essential medium) culture medium was added to a 96-well plate (96-well clear-bottom plate), and cultured for about 24 hours. After culture, the supernatant of the 96-well plate was removed, and the 100 μL/well compounds of each concentration dissolved and suspended in an MEM including 25 μmol/L nitrobenzoxadiazole dipalmitoyl phosphatidylethanolamine (NBD-PE) (hereinafter abbreviated as a NPD-PE medium) were added and treated for about 24 hours. The treatment concentrations of each compound were set to be 6.25, 12.5, 25, 50 and 100 μmol/L. The positive control substance was set to be amiodarone hydrochloride, and the treatment concentrations were set to be 1.25, 2.5, 5, 10 and 20 μmol/L. In addition, 5-well untreated controls (only MEM) and 5-well NBD-PE controls (made by means of adding a 1/100 amount of DMSO to the NBD-PE culture medium) were set per compound, and cultured in the same manner. After finishing the culture, the cultures were washed twice with phosphate buffered saline (hereinafter abbreviated as PBS) (−) 100 μL/well, and the MEM (100 μL) was added to all of the treatment wells including two empty wells for WST-1 background controls and cultured for about a half hour. The fluorescence intensities of each well were measured by using a microplate reader (manufactured by Molecular Devices Inc., SPECTRA max M2; the excitation wavelength 485 nm/fluorescence wavelength 535 nm). Using the average values of each dose×2 wells, a phospholipid increase rate (%) to the NBD-PE control was calculated by using the following calculating formula: Rate of increase of pholipid accumulation (%)=100×{(test compound fluorescence intensity−non-treated control fluorescence intensity)/(NBD-PE control fluorescence intensity−non-treated control fluorescence intensity)} (3) Cytotoxicity Assay 96-well plate measured in the phospholipid accumulation measurement was measured by means of Plate Reader (manufactured by Molecular Devices Inc., SPECTRA max M2) with the main wavelength of 450 nm and the correct wavelength of 690 nm to calculate a Pre value. An amount of 5 μL/well of Premix WS T-1 was added to each of the 96-hole plates by which Pre measurement was conducted. After culture for 2 to 4 hours, the 96-well plate was measured as well as the Pre measurement to calculate an Aft value. Then, the background control value was subtracted from the each measured value. A value which was calculated by subtracting the Pre value from the Aft value was used, then the cell growth rate (%) was calculated by using the following calculating formula: Cell growth rate (%)=100×[(test substance OD)/(NBD-PE control OD)] (4) Determination A test dose that indicated value of 25% or more of the maximum phospholipid accumulation increase rate of amiodarone which was the positive control was determined as positive. In addition, the dose whose cell growth rate was equal to or less than 50% in the cytotoxicity assay was not used for determination of existence or nonexistence of a phospholipidosis inductive effect.

T1 sequence (P61073 whole entry): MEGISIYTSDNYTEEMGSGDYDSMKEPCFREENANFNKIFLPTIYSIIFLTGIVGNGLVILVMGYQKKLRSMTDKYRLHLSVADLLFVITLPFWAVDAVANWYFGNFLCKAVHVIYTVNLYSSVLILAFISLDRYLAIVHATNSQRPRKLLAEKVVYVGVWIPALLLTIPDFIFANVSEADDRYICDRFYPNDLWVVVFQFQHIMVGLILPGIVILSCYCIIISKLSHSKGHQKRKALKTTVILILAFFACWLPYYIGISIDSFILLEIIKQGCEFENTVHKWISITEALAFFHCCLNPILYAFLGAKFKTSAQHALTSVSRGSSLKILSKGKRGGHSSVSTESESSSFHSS

Structure (SMILES)	IC50 (CXCR4)	Determination [1]	Corrected value of binding response (RU) [1]	Rate of increase of phopholipid accumulation (%) [2]	Determination [2]
CCOC(=O)CCCn1ccnc1CN(Cc1ccc(CN2CCC3(CCN(C(CC)CC)CC3)C2)cc1)Cc1ncc[nH]1 [Example 37 (3), Ethyl 4-(2-{[(4-{[8-(1-ethylpropyl)-2,8-diazaspiro[4.5]dec-2-yl]methyl]benzyl)(1 H-imidazol-2-ylmethyl)amino]methyl}-1H-imidazol-1-yl)butanoate]	0.0118 µM				
O=C(O)Cn1ccnc1CN(Cc1ccc(CN2CCC3(CCN(C4CCCCC4)CC3)C2)cc1)Cc1ncc[nH]1 [Example 9, (2-{[{4-[(8-cyclohexyl-2,8-diazaspiro[4.5]dec-2-yl)methyl]benzyl}(1H-imidazol-2-ylmethyl)amino]methyl}-1H-imidazol-1-yl)acetic Acid]	0.0048 µM	Negative (The compound wherein a value of the binding response after the correction was 150 or more was determined as positive)	59.0 RU	10%	Negative (A test dose that indicated value of 25% or more of the maximum phospholipid accumulation increase rate of amiodarone which was the positive control was determined as positive)
CC(OC(=O)CCn1ccnc1CN(Cc1ccc(CN2CCC3(CCN(C4CCCCC4)CC3)C2)cc1)Cc1ncc[nH]1)OC(=O)OC1CCCCC1 (centres unmarked) [Example 36, 1-{[(cyclohexyloxy)carbonyl]oxy}ethyl 3-(2-{[{4-[(8-cyclohexyl-2,8-diazaspiro[4.5]dec-2-yl)methyl]benzyl}(1H-imidazol-2-ylmethyl)amino]methyl}-1H-imidazol-1-yl)propanoate]	0.0204 µM				
O=C(O)CCn1ccnc1CN(Cc1ccc(CN2CCC3(CCN(C4CCCCC4)CC3)C2)cc1)Cc1ncc[nH]1 [Example 9 (1), 3-(2-{[{4-[(8-cyclohexyl-2,8-diazaspiro[4.5]dec-2-yl)methyl]benzyl}(1H-imidazol-2-ylmethyl)amino]methyl}-1H-imidazol-1-yl)propionic Acid]	0.0034 µM	Negative (The compound wherein a value of the binding response after the correction was 150 or more was determined as positive)	52.0 RU	6%	Negative (A test dose that indicated value of 25% or more of the maximum phospholipid accumulation increase rate of amiodarone which was the positive control was determined as positive)

Second part, led by results:

IC50 (CXCR4)	Structure (SMILES)	Determination [1]	Corrected value of binding response (RU) [1]	Rate of increase of phopholipid accumulation (%) [2]	Determination [2]
0.0187 µM	CC(C)CN1CCC2(CC1)CCN(Cc1ccc(CN(Cc3ncc[nH]3)Cc3nccn3CCCC(=O)O)cc1)C2 [Example 38 (1), 4-(2-{[(1H-imidazol-2-ylmethyl){4-[(8-isobutyl-2,8-diazaspiro[4.5]dec-2-yl)methyl]benzyl}amino]methyl}-1H-imidazol-1-yl)butanoic Acid]	Negative (The compound wherein a value of the binding response after the correction was 150 or more was determined as positive)	5.4 RU	8%	Negative (A test dose that indicated value of 25% or more of the maximum phospholipid accumulation increase rate of amiodarone which was the positive control was determined as positive)
0.0137 µM	CCOC(=O)CCCn1ccnc1CN(Cc1ccc(CN2CCC3(CCN(CC(C)C)CC3)C2)cc1)Cc1ncc[nH]1 [Example 37 (1), Ethyl 4-(2-{[(1H-imidazol-2-ylmethyl){4-[(8-isobutyl-2,8-diazaspiro[4.5]dec-2-yl)methyl]benzyl}amino]methyl}-1 H-imidazol-1-yl)butanoate]				
0.012 µM	CCC(CC)N1CCC2(CCN(Cc3ccc(CN(Cc4ncc[nH]4)Cc4nccn4CCCC(=O)O)cc3)C2)CC1 [Example 38 (3), 4-(2-{[(4-{[8-(1-ethylpropyl)-2,8-diazaspiro[4.5]dec-2-yl]methyl]benzyl)(1H-imidazol-2-ylmethyl)amino]methyl}-1H-imidazol-1-yl)butanoic Acid]	Negative (The compound wherein a value of the binding response after the correction was 150 or more was determined as positive)	98.9 RU	11%	Negative (A test dose that indicated value of 25% or more of the maximum phospholipid accumulation increase rate of amiodarone which was the positive control was determined as positive)

— patent publication US8618122B2, “Compound having acidic group which may be protected, and use thereof” (Ono Pharmaceutical Co., Ltd., priority 2006, dated 2013)
